From patent US20100221769A1, “ELECTROPORATIVE FLOW CYTOMETRY” (priority 2007, published 2010)

Tests used:
MCF-7 cells [1] = test: Cell viability (PI staining) after flow-through electroporation; type: cell-based, human; conditions: 0 and 200 V/cm, 200 ms, 1 hr after electroporation
MCF-7 cells [2] = test: EFC cell swelling during flow-through electroporation; type: cell-based, human
Experimental: Cell culture. MCF-7 and MCF-10A cell lines were obtained from American Type Culture Collection (ATCC, Manassas, Va.) and cultured according to recommended protocols. Briefly, MCF-10A cell line was cultured in DMEM F-12 supplemented with Horse Serum (5.6%), EGF (20 ng/ml), Insulin (10 μg/ml), antibiotics (1%) and Hydrocortisone (0.5 μg/ml). The MCF-7 cell line was cultured in DMEM supplemented with FBS (10%), Penicillin/streptomycin (1%) and L-glutamine (2 mM). The TPA treated MCF-7 cell line was generated by treating MCF-7 cells with 100 nM 12-O-tetradecanoylphorbol-13-acetate (TPA) for 18 hr before experiments. In order to detach cells from culture flasks, cells were treated with 0.1% Trypsin/EDTA, washed and resuspended using the electroporation buffer (10 mM Na2HPO4, […], and 250 mM sucrose). For the treatment of MCF-7 cells with colchicine, MCF-7 cells were incubated in the culture medium consisting of 10 μM colchicine (Sigma, St Louis, USA) for 30 min (Rots and Teissie, 1992, Biochim. Biophys. Acta 1111: 45-50). The cell suspension was then centrifuged and the supernatant was discarded. The cells were washed with the electroporation buffer and then resuspended in the electroporation buffer for testing. […]
Microchip operation and data collection/analysis. The microfluidic chip (shown in FIG. 10) was mounted on an IX-71 fluorescence microscope (Olympus, Melville, N.Y.) equipped with a 40× dry objective (NA=0.40) and an ORCA-285 CCD camera (Hamamatsu, Bridgewater, N.J.). […] However, because the cell size is monitored over time, the results should not be affected by the velocity, assuming mechanical effects such as shear stress can be ignored. […] In this case, the duration of electroporation was determined by the flow rate and the dimensions of the microfluidic channel. […]
For EFC tests, the images of cells were taken at a frame rate of 16 Hz. The cell size was monitored over time during electroporation by measuring the two-dimensional area (μm^2) of individual cells in time-sequenced images using ImageJ software from NIH. […]

MCF-7 cells [3] = conditions: 100 nM for 18 hr (Johnson et al., 1999); cited from earlier work

Row | SMILES | survival compared with MCF-10A and untreated MCF-7 (MCF-7 cells [1]) | average cell size, % of original size (MCF-7 cells [2]; 400 V/cm, 192 ms, 100 nM for 18 hr, untreated MCF-7 148%) [%] | average percentile cell size from normal distribution fit of histogram (MCF-7 cells [2]; 400 V/cm, 192 ms, about 100 cells, untreated MCF-7 150%) [%] | increase in invasiveness and metastatic potential (MCF-7 cells [3]) [fold] | effect on cell deformability (swelling during electroporation vs control) (MCF-7 cells [2]; 10 μM for 30 min)
1 | CCCCCCCCCCCCCC(=O)O[C@@H]1[C@@H](C)[C@@]2(O)[C@@H](C=C(CO)C[C@]3(O)C(=O)C(C)=C[C@@H]23)[C@@H]2C(C)(C)[C@]12OC(C)=O [TPA, 12-O-tetradecanoylphorbol-13-acetate] | better survival rate | 170 | 170 | 18 | –
2 | COc1cc2c(c(OC)c1OC)-c1ccc(OC)c(=O)cc1[C@@H](NC(C)=O)CC2 [colchicine] | – | – | – | – | cell stiffening
